Assay results as given in US20100267561A1, “HERBICIDAL PYRIDAZINONE DERIVATIVES” (priority 2007, published 2010).

Assays:
Test in all cases: Test B pre-/postemergence plant response
Type in all cases: in vivo
[1] = tested on: yellow nutsedge (Cyperus esculentus)
Method in brief: (§1)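 Seeds were sown and sprayed preemergence, while plants at 2 to 18 cm (1- to 4-leaf stage) got postemergence sprays. Compounds were formulated in a non-phytotoxic solvent mixture with surfactant. After 13 to 15 days in a greenhouse, injury was rated visually against untreated controls, 0 (no effect) to 100 (complete control).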

corn (Zea mays) = tested on: corn (Zea mays)
Method in brief: as §1

[2] = tested on: cocklebur (Xanthium strumarium)
Method in brief: as §1

kochia (Kochia scoparia) = tested on: kochia (Kochia scoparia)
Method in brief: as §1

[3] = tested on: wheat (Triticum aestivum)
Method in brief: as §1

[4] = tested on: blackgrass (Alopecurus myosuroides); conditions: for Blackgrass plant response rating: preemergence, 0-100 scale
Method in brief: as §1

[5] = tested on: morningglory (Ipomoea coccinea)
Method in brief: as §1

soybean (Glycine max) = tested on: soybean (Glycine max)
Method in brief: as §1

[6] = tested on: surinam grass (Brachiaria decumbens)
Method in brief: as §1

[7] = tested on: bermudagrass (Cynodon dactylon); conditions: for Bermudagrass plant response rating: preemergence, 0-100 scale
Method in brief: as §1

[8] = tested on: catchweed bedstraw (Galium aparine); conditions: Preemergence
Method in brief: as §1

[9] = tested on: lambsquarters (Chenopodium album)
Method in brief: as §1

[10] = tested on: downy bromegrass (Bromus tectorum)
Method in brief: as §1

[11] = Postemergence, 31 g ai/ha, scale 0 to 100, 0 no effect, 100 complete control
[12] = Postemergence, 62 g ai/ha, scale 0 to 100
[13] = Postemergence, 125 g ai/ha, scale 0 to 100
[14] = Postemergence, 250 g ai/ha, scale 0 to 100
[15] = Preemergence, 31 g ai/ha, 0 to 100 scale, 0 no effect, 100 complete control
[16] = Preemergence, 62 g ai/ha, scale 0 to 100
[17] = Preemergence, 125 g ai/ha, scale 0 to 100
[18] = Preemergence, 250 g ai/ha, scale 0 to 100
[19] = 31 g ai/ha, 0 to 100 scale, 0 no effect, 100 complete control
[20] = Preemergence, 250 g ai/ha, scale 0 to 100 (0 no effect, 100 complete control)

Cc1cc(-c2ccc(Br)cc2)nn1-c1c(O)cnn(C)c1=O [Compound 4]
Plant response rating, Nutsedge, Yellow [1, 11]: 0 | Plant response rating, Nutsedge, Yellow [1, 12]: 0 | Plant response rating, Nutsedge, Yellow [1, 13]: 0 | Plant response rating, Nutsedge, Yellow [1, 14]: 0 | Plant response rating, Nutsedge, Yellow [1, 15]: 0 | Plant response rating, Nutsedge, Yellow [1, 16]: 0 | Plant response rating, Nutsedge, Yellow [1, 17]: 0 | Plant response rating, Corn (corn (Zea mays); [11]): 90 | Plant response rating, Corn (corn (Zea mays); [12]): 95 | Plant response rating, Corn (corn (Zea mays); [13]): 100 | Plant response rating, Corn (corn (Zea mays); [14]): 100 | Plant response rating, Corn (corn (Zea mays); [15]): 85 | Plant response rating, Corn (corn (Zea mays); [16]): 95 | Plant response rating, Corn (corn (Zea mays); [17]): 98 | Plant response rating, Corn (corn (Zea mays); [18]): 100 | Plant response rating, Cocklebur [2, 11]: 0 | Plant response rating, Cocklebur [2, 12]: 0 | Plant response rating, Cocklebur [2, 13]: 0 | Plant response rating, Cocklebur [2, 14]: 0 | Plant response rating, Cocklebur [2, 15]: 0 | Plant response rating, Cocklebur [2, 16]: 0 | Plant response rating, Cocklebur [2, 17]: 0 | Plant response rating, Cocklebur [2, 18]: 30 | Plant response rating, Kochia (kochia (Kochia scoparia); [11]): 0 | Plant response rating, Kochia (kochia (Kochia scoparia); [12]): 0 | Plant response rating, Kochia (kochia (Kochia scoparia); [13]): 60 | Plant response rating, Kochia (kochia (Kochia scoparia); [14]): 70 | Plant response rating, Kochia (kochia (Kochia scoparia); [15]): 0 | Plant response rating, Kochia (kochia (Kochia scoparia); [17]): 0 | Plant response rating, Kochia (kochia (Kochia scoparia); [18]): 0 | Plant response rating, Wheat [3, 11]: 90 | Plant response rating, Wheat [3, 12]: 100 | Plant response rating, Wheat [3, 13]: 100 | Plant response rating, Wheat [3, 14]: 100 | Plant response rating, Wheat [3, 15]: 60 | Plant response rating, Wheat [3, 16]: 95 | Plant response rating, Wheat [3, 17]: 100 | Plant response rating, Wheat [3, 18]: 100 | Blackgrass plant response rating ([4]; 250 g ai/ha): 100 | Plant response rating, Blackgrass [4, 11]: 90 | Plant response rating, Blackgrass [4, 12]: 100 | Plant response rating, Blackgrass [4, 13]: 100 | Plant response rating, Blackgrass [4, 14]: 100 | Plant response rating, Blackgrass [4, 15]: 100 | Plant response rating, Blackgrass [4, 16]: 100 | Plant response rating, Blackgrass [4, 17]: 100 | Plant response rating, Morningglory [5, 11]: 0 | Plant response rating, Morningglory [5, 12]: 0 | Plant response rating, Morningglory [5, 13]: 0 | Plant response rating, Morningglory [5, 14]: 0 | Plant response rating, Morningglory [5, 15]: 0 | Plant response rating, Morningglory [5, 16]: 0 | Plant response rating, Morningglory [5, 17]: 0 | Plant response rating, Morningglory [5, 18]: 30 | Plant response rating, Soybean (soybean (Glycine max); [11]): 20 | Plant response rating, Soybean (soybean (Glycine max); [12]): 30 | Plant response rating, Soybean (soybean (Glycine max); [13]): 90 | Plant response rating, Soybean (soybean (Glycine max); [14]): 90 | Plant response rating, Soybean (soybean (Glycine max); [15]): 0 | Plant response rating, Soybean (soybean (Glycine max); [16]): 0 | Plant response rating, Soybean (soybean (Glycine max); [17]): 0 | Plant response rating, Soybean (soybean (Glycine max); [18]): 20 | Plant response rating, Surinam Grass [6, 11]: 100 | Plant response rating, Surinam Grass [6, 12]: 100 | Plant response rating, Surinam Grass [6, 13]: 100 | Plant response rating, Surinam Grass [6, 14]: 100 | Plant response rating, Surinam Grass [6, 15]: 100 | Plant response rating, Surinam Grass [6, 16]: 100 | Plant response rating, Surinam Grass [6, 17]: 100 | Plant response rating, Surinam Grass [6, 18]: 100 | Bermudagrass plant response rating ([7]; 250 g ai/ha): 100 | Plant response rating, Bermudagrass [7, 11]: 100 | Plant response rating, Bermudagrass [7, 12]: 100 | Plant response rating, Bermudagrass [7, 13]: 100 | Plant response rating, Bermudagrass [7, 14]: 100 | Plant response rating, Bermudagrass [7, 15]: 100 | Plant response rating, Bermudagrass [7, 16]: 100 | Plant response rating, Bermudagrass [7, 17]: 100 | Plant response rating, Galium [8, 19]: 0 | Plant response rating, Galium ([8]; 62 g ai/ha, scale 0 to 100): 0 | Plant response rating, Galium ([8]; 125 g ai/ha, scale 0 to 100): 85 | Plant response rating, Galium ([8]; 250 g ai/ha, scale 0 to 100): 90 | Plant response rating, Lambsquarters [9, 11]: 0 | Plant response rating, Lambsquarters [9, 12]: 0 | Plant response rating, Lambsquarters [9, 13]: 60 | Plant response rating, Lambsquarters [9, 14]: 80 | Plant response rating, Lambsquarters [9, 16]: 85 | Plant response rating, Lambsquarters [9, 17]: 85 | Plant response rating, Lambsquarters [9, 18]: 90 | Plant response rating, Bromegrass, Downy [10, 11]: 0 | Plant response rating, Bromegrass, Downy [10, 12]: 5 | Plant response rating, Bromegrass, Downy [10, 13]: 20 | Plant response rating, Bromegrass, Downy [10, 14]: 40 | Plant response rating, Bromegrass, Downy [10, 15]: 70 | Plant response rating, Bromegrass, Downy [10, 16]: 70 | Plant response rating, Bromegrass, Downy [10, 17]: 98 | Plant response rating, Bromegrass, Downy [10, 20]: 100

Cc1cc(-c2ccc(Br)cc2)nn1-c1c(OC(=O)OC(C)C)cnn(C)c1=O [Compound 6]
Plant response rating, Nutsedge, Yellow [1, 11]: 0 | Plant response rating, Nutsedge, Yellow [1, 12]: 0 | Plant response rating, Nutsedge, Yellow [1, 13]: 0 | Plant response rating, Nutsedge, Yellow [1, 14]: 0 | Plant response rating, Nutsedge, Yellow [1, 15]: 0 | Plant response rating, Nutsedge, Yellow [1, 16]: 0 | Plant response rating, Nutsedge, Yellow [1, 17]: 0 | Plant response rating, Nutsedge, Yellow [1, 18]: 0 | Plant response rating, Corn (corn (Zea mays); [11]): 95 | Plant response rating, Corn (corn (Zea mays); [12]): 95 | Plant response rating, Corn (corn (Zea mays); [13]): 100 | Plant response rating, Corn (corn (Zea mays); [14]): 100 | Plant response rating, Corn (corn (Zea mays); [15]): 95 | Plant response rating, Corn (corn (Zea mays); [16]): 98 | Plant response rating, Corn (corn (Zea mays); [17]): 98 | Plant response rating, Corn (corn (Zea mays); [18]): 100 | Plant response rating, Cocklebur [2, 11]: 0 | Plant response rating, Cocklebur [2, 12]: 0 | Plant response rating, Cocklebur [2, 13]: 0 | Plant response rating, Cocklebur [2, 14]: 40 | Plant response rating, Cocklebur [2, 15]: 0 | Plant response rating, Cocklebur [2, 16]: 0 | Plant response rating, Cocklebur [2, 17]: 0 | Plant response rating, Cocklebur [2, 18]: 0 | Plant response rating, Kochia (kochia (Kochia scoparia); [11]): 0 | Plant response rating, Kochia (kochia (Kochia scoparia); [12]): 0 | Plant response rating, Kochia (kochia (Kochia scoparia); [13]): 20 | Plant response rating, Kochia (kochia (Kochia scoparia); [14]): 20 | Plant response rating, Kochia (kochia (Kochia scoparia); [15]): 0 | Plant response rating, Kochia (kochia (Kochia scoparia); [16]): 0 | Plant response rating, Kochia (kochia (Kochia scoparia); [17]): 20 | Plant response rating, Kochia (kochia (Kochia scoparia); [18]): 60 | Plant response rating, Wheat [3, 11]: 90 | Plant response rating, Wheat [3, 12]: 100 | Plant response rating, Wheat [3, 13]: 100 | Plant response rating, Wheat [3, 14]: 100 | Plant response rating, Wheat [3, 15]: 35 | Plant response rating, Wheat [3, 16]: 80 | Plant response rating, Wheat [3, 17]: 90 | Plant response rating, Wheat [3, 18]: 90 | Blackgrass plant response rating ([4]; 250 g ai/ha): 100 | Plant response rating, Blackgrass [4, 11]: 100 | Plant response rating, Blackgrass [4, 12]: 100 | Plant response rating, Blackgrass [4, 13]: 100 | Plant response rating, Blackgrass [4, 14]: 100 | Plant response rating, Blackgrass [4, 15]: 80 | Plant response rating, Blackgrass [4, 16]: 100 | Plant response rating, Blackgrass [4, 17]: 100 | Plant response rating, Morningglory [5, 11]: 0 | Plant response rating, Morningglory [5, 12]: 0 | Plant response rating, Morningglory [5, 13]: 0 | Plant response rating, Morningglory [5, 14]: 50 | Plant response rating, Morningglory [5, 15]: 0 | Plant response rating, Morningglory [5, 16]: 0 | Plant response rating, Morningglory [5, 17]: 0 | Plant response rating, Morningglory [5, 18]: 0 | Plant response rating, Soybean (soybean (Glycine max); [11]): 0 | Plant response rating, Soybean (soybean (Glycine max); [12]): 60 | Plant response rating, Soybean (soybean (Glycine max); [13]): 75 | Plant response rating, Soybean (soybean (Glycine max); [14]): 90 | Plant response rating, Soybean (soybean (Glycine max); [15]): 0 | Plant response rating, Soybean (soybean (Glycine max); [16]): 0 | Plant response rating, Soybean (soybean (Glycine max); [17]): 40 | Plant response rating, Soybean (soybean (Glycine max); [18]): 70 | Plant response rating, Surinam Grass [6, 11]: 100 | Plant response rating, Surinam Grass [6, 12]: 100 | Plant response rating, Surinam Grass [6, 13]: 100 | Plant response rating, Surinam Grass [6, 14]: 100 | Plant response rating, Surinam Grass [6, 15]: 98 | Plant response rating, Surinam Grass [6, 16]: 98 | Plant response rating, Surinam Grass [6, 17]: 100 | Plant response rating, Surinam Grass [6, 18]: 100 | Bermudagrass plant response rating ([7]; 250 g ai/ha): 100 | Plant response rating, Bermudagrass [7, 11]: 100 | Plant response rating, Bermudagrass [7, 12]: 100 | Plant response rating, Bermudagrass [7, 13]: 100 | Plant response rating, Bermudagrass [7, 14]: 100 | Plant response rating, Bermudagrass [7, 15]: 100 | Plant response rating, Bermudagrass [7, 16]: 100 | Plant response rating, Bermudagrass [7, 17]: 100 | Plant response rating, Galium [8, 19]: 0 | Plant response rating, Galium ([8]; 125 g ai/ha, scale 0 to 100): 70 | Plant response rating, Galium ([8]; 250 g ai/ha, scale 0 to 100): 70 | Plant response rating, Lambsquarters [9, 11]: 0 | Plant response rating, Lambsquarters [9, 12]: 0 | Plant response rating, Lambsquarters [9, 13]: 20 | Plant response rating, Lambsquarters [9, 14]: 70 | Plant response rating, Lambsquarters [9, 15]: 0 | Plant response rating, Lambsquarters [9, 17]: 85 | Plant response rating, Lambsquarters [9, 18]: 95 | Plant response rating, Bromegrass, Downy [10, 11]: 5 | Plant response rating, Bromegrass, Downy [10, 12]: 5 | Plant response rating, Bromegrass, Downy [10, 13]: 5 | Plant response rating, Bromegrass, Downy [10, 14]: 10 | Plant response rating, Bromegrass, Downy [10, 15]: 50 | Plant response rating, Bromegrass, Downy [10, 16]: 65 | Plant response rating, Bromegrass, Downy [10, 17]: 65 | Plant response rating, Bromegrass, Downy [10, 20]: 95
